Measurements from the supplement of paper PMC10307832.

Assays:
Assay in all cases: relative viability (nuclei count vs DMSO), 5 days (fraction); higher = more cells survive
HCC-78 = test system: HCC-78
Method in brief: (§1)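 Relative viability equals treated-well nuclei counts divided by vehicle-well nuclei counts. Counts came from 4× images of lung cancer cell lines grown in 1536-well plates for 5 days after pin-tool dosing on the day after seeding. Dosing used one drug alone or a fixed anchor-drug dose plus five library-drug doses (not always all listed) in √10 steps, and values are medians of duplicate plates.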

NCI-H661 = test system: NCI-H661
Method in brief: as §1

NCI-H1915 = test system: NCI-H1915
Method in brief: as §1

HCC-366 = test system: HCC-366
Method in brief: as §1

NCI-H1993 = test system: NCI-H1993
Method in brief: as §1

LK-2 = test system: LK-2
Method in brief: as §1

NCI-H2405 = test system: NCI-H2405
Method in brief: as §1

COR-L23 = test system: COR-L23
Method in brief: as §1

A-427 = test system: A-427
Method in brief: as §1

EMC-BAC-2 = test system: EMC-BAC-2
Method in brief: as §1

NCI-H1563 = test system: NCI-H1563
Method in brief: as §1

COR-L 105 = test system: COR-L 105
Method in brief: as §1

BEN = test system: BEN
Method in brief: as §1

HOP-62 = test system: HOP-62
Method in brief: as §1

NCI-H1734 = test system: NCI-H1734
Method in brief: as §1

SK-MES-1 = test system: SK-MES-1
Method in brief: as §1

PC-14 = test system: PC-14
Method in brief: as §1

NCI-H460 = test system: NCI-H460
Method in brief: as §1

NCI-H647 = test system: NCI-H647
Method in brief: as §1

201T = test system: 201T
Method in brief: as §1

EKVX = test system: EKVX
Method in brief: as §1

HCC-15 = test system: HCC-15
Method in brief: as §1

For `Cc1csc(=NC2CCCCC2)n1/N=C/c1ccc(O)c(O)c1O` [MIM1] + Cc1nc(NC(=O)N2CCC[C@H]2C(N)=O)sc1-c1ccnc(C(C)(C)C(F)(F)F)c1 [Alpelisib] (partner 2 µM), the relative viability (HCC-78; first compound 0.2 µM) was 0.329, the relative viability (HCC-78; first compound 0.6325 µM) was 0.388 and the relative viability (HCC-78; first compound 2 µM) was 0.362. It also gave a relative viability (HCC-78; first compound 6.325 µM) of 0.365, a relative viability (HCC-78; first compound 20 µM) of 0.359 and a relative viability (NCI-H661; first compound 0.2 µM) of 0.728. For the same compound, the relative viability (NCI-H661; first compound 0.6325 µM) was 0.847, the relative viability (NCI-H661; first compound 2 µM) was 0.655 and the relative viability (NCI-H661; first compound 6.325 µM) was 0.472. The relative viability (NCI-H661; first compound 20 µM) was 0.305, the relative viability (NCI-H1915; first compound 0.2 µM) was 1.14 and the relative viability (NCI-H1915; first compound 0.6325 µM) was 1.04. It also gave a relative viability (NCI-H1915; first compound 2 µM) of 1.02, a relative viability (NCI-H1915; first compound 6.325 µM) of 0.773 and a relative viability (NCI-H1915; first compound 20 µM) of 0.277. It also gave a relative viability (HCC-366; first compound 0.2 µM) of 0.37, a relative viability (HCC-366; first compound 0.6325 µM) of 0.37 and a relative viability (HCC-366; first compound 2 µM) of 0.335. It also gave a relative viability (HCC-366; first compound 6.325 µM) of 0.308, a relative viability (HCC-366; first compound 20 µM) of 0.0363 and a relative viability (NCI-H1993; first compound 0.2 µM) of 0.715. For the same compound, the relative viability (NCI-H1993; first compound 0.6325 µM) was 0.619, the relative viability (NCI-H1993; first compound 2 µM) was 0.758 and the relative viability (NCI-H1993; first compound 6.325 µM) was 0.724. For the same compound, the relative viability (NCI-H1993; first compound 20 µM) was 0.55, the relative viability (LK-2; first compound 0.2 µM) was 0.958 and the relative viability (LK-2; first compound 0.6325 µM) was 1.04. The relative viability (LK-2; first compound 6.325 µM) was 0.963, the relative viability (LK-2; first compound 20 µM) was 0.374 and the relative viability (NCI-H2405; first compound 0.2 µM) was 0.787. The relative viability (NCI-H2405; first compound 0.6325 µM) was 0.85, the relative viability (NCI-H2405; first compound 2 µM) was 0.739 and the relative viability (NCI-H2405; first compound 6.325 µM) was 0.76. The relative viability (NCI-H2405; first compound 20 µM) was 0.644, the relative viability (COR-L23; first compound 0.2 µM) was 0.725 and the relative viability (COR-L23; first compound 0.6325 µM) was 0.809. For the same compound, the relative viability (COR-L23; first compound 2 µM) was 0.537, the relative viability (COR-L23; first compound 6.325 µM) was 0.558 and the relative viability (COR-L23; first compound 20 µM) was 0.457. For the same compound, the relative viability (A-427; first compound 0.2 µM) was 1.09, the relative viability (A-427; first compound 0.6325 µM) was 1.06 and the relative viability (A-427; first compound 2 µM) was 1.15. For the same compound, the relative viability (A-427; first compound 6.325 µM) was 1.06, the relative viability (A-427; first compound 20 µM) was 0.335 and the relative viability (EMC-BAC-2; first compound 0.2 µM) was 0.718. It also gave a relative viability (EMC-BAC-2; first compound 0.6325 µM) of 0.771, a relative viability (EMC-BAC-2; first compound 2 µM) of 0.745 and a relative viability (EMC-BAC-2; first compound 6.325 µM) of 0.682. The relative viability (EMC-BAC-2; first compound 20 µM) was 0.404, the relative viability (NCI-H1563; first compound 0.2 µM) was 0.95 and the relative viability (NCI-H1563; first compound 0.6325 µM) was 1.04. For the same compound, the relative viability (NCI-H1563; first compound 2 µM) was 0.873, the relative viability (NCI-H1563; first compound 6.325 µM) was 0.802 and the relative viability (NCI-H1563; first compound 20 µM) was 0.657. For the same compound, the relative viability (COR-L 105; first compound 0.2 µM) was 0.782, the relative viability (COR-L 105; first compound 0.6325 µM) was 0.971 and the relative viability (COR-L 105; first compound 2 µM) was 0.849. For the same compound, the relative viability (COR-L 105; first compound 6.325 µM) was 0.934, the relative viability (COR-L 105; first compound 20 µM) was 0.966 and the relative viability (BEN; first compound 0.2 µM) was 1.13. The relative viability (BEN; first compound 0.6325 µM) was 0.99, the relative viability (BEN; first compound 2 µM) was 1.21 and the relative viability (BEN; first compound 6.325 µM) was 1.01. It also gave a relative viability (BEN; first compound 20 µM) of 0.445, a relative viability (HOP-62; first compound 0.2 µM) of 0.785 and a relative viability (HOP-62; first compound 0.6325 µM) of 0.958. For the same compound, the relative viability (HOP-62; first compound 2 µM) was 0.608, the relative viability (HOP-62; first compound 6.325 µM) was 1.03 and the relative viability (HOP-62; first compound 20 µM) was 0.24. The relative viability (NCI-H1734; first compound 0.2 µM) was 0.738, the relative viability (NCI-H1734; first compound 0.6325 µM) was 0.655 and the relative viability (NCI-H1734; first compound 2 µM) was 0.696. For the same compound, the relative viability (NCI-H1734; first compound 6.325 µM) was 0.655, the relative viability (NCI-H1734; first compound 20 µM) was 0.38 and the relative viability (SK-MES-1; first compound 0.2 µM) was 0.913. It also gave a relative viability (SK-MES-1; first compound 0.6325 µM) of 0.774, a relative viability (SK-MES-1; first compound 2 µM) of 0.813 and a relative viability (SK-MES-1; first compound 6.325 µM) of 0.8. The relative viability (SK-MES-1; first compound 20 µM) was 0.725, the relative viability (PC-14; first compound 0.2 µM) was 0.886 and the relative viability (PC-14; first compound 0.6325 µM) was 0.92. For the same compound, the relative viability (PC-14; first compound 2 µM) was 0.847, the relative viability (PC-14; first compound 6.325 µM) was 0.878 and the relative viability (PC-14; first compound 20 µM) was 0.383. It also gave a relative viability (NCI-H460; first compound 0.2 µM) of 0.43, a relative viability (NCI-H460; first compound 0.6325 µM) of 0.549 and a relative viability (NCI-H460; first compound 2 µM) of 0.456. The relative viability (NCI-H460; first compound 6.325 µM) was 0.204, the relative viability (NCI-H460; first compound 20 µM) was 0.0234 and the relative viability (NCI-H647; first compound 0.2 µM) was 1.23. The relative viability (NCI-H647; first compound 0.6325 µM) was 1.14, the relative viability (NCI-H647; first compound 2 µM) was 1.12 and the relative viability (NCI-H647; first compound 6.325 µM) was 0.991. For the same compound, the relative viability (NCI-H647; first compound 20 µM) was 0.213, the relative viability (201T; first compound 0.2 µM) was 1 and the relative viability (201T; first compound 0.6325 µM) was 1.03. It also gave a relative viability (201T; first compound 2 µM) of 1.02, a relative viability (201T; first compound 6.325 µM) of 0.942 and a relative viability (201T; first compound 20 µM) of 1.29. The relative viability (EKVX; first compound 0.2 µM) was 0.924, the relative viability (EKVX; first compound 0.6325 µM) was 0.91 and the relative viability (EKVX; first compound 2 µM) was 0.934. For the same compound, the relative viability (EKVX; first compound 6.325 µM) was 0.575, the relative viability (EKVX; first compound 20 µM) was 0.615 and the relative viability (HCC-15; first compound 0.2 µM) was 0.989. It also gave a relative viability (HCC-15; first compound 0.6325 µM) of 0.838, a relative viability (HCC-15; first compound 2 µM) of 0.967 and a relative viability (HCC-15; first compound 6.325 µM) of 0.481. The relative viability (HCC-15; first compound 20 µM) was 0.125.
